Reference: PubChem BioAssay (NCI)
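Cells were grown in 96-well plates and exposed to each compound for 48 hours at five concentrations; endpoints were interpolated linearly between bracketing concentrations, or set to the highest concentration if not reached. TGI denotes the concentration required for complete inhibition of growth.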

Tests used:
Assay in all cases: NCI anticancer screen, dose series, 48 h
[1] = test system: OVCAR-5 ovarian
[2] = test system: RXF 393 renal
[3] = test system: HT29 colon
[4] = test system: M14 melanoma
[5] = test system: COLO 205 colon
[6] = test system: ACHN renal
[7] = test system: SK-MEL-5 melanoma
[8] = test system: CCRF-CEM leukemia
[9] = test system: HS 578T breast
[10] = test system: SF-295 CNS
[11] = test system: MDA-MB-231 breast
[12] = test system: NCI-H460 lung
[13] = test system: NCI-H522 lung
[14] = test system: HCT-116 colon
[15] = test system: OVCAR-4 ovarian
[16] = test system: RPMI-8226 leukemia
[17] = test system: SN12C renal
[18] = test system: K-562 leukemia
[19] = test system: MOLT-4 leukemia

Measured: TGI

CC1(C)CC(=O)C2=C(C1)NC(SCC(=O)O)=C(C#N)C2c1ccc(Br)cc1 (stereo not given)
> 100 µM: [1] | [2] | [3] | [4] | [5] | [6] | [7] | [8] | [9] | [10] | [11] | [12] | [13] | [14] | [15]

Nc1ccccc1/C=C\c1ccccc1
> 100 µM: [1] | [2] | [3] | [16] | [4] | [6] | [17] | [18] | [7] | [8] | [9] | [10] | [12] | [19] | [14]

CCn1nc(-c2ccccc2)c2c1N(C)c1ccccc1-n1c(-c3ccccc3)nnc1-2
33.5 µM: [1]
> 100 µM: [16] | [18] | [8]
48.5 µM: [5]
32.1 µM: [4]
26.3 µM: [14]
21.2 µM: [7]
26.8 µM: [6]
52.4 µM: [9]
32.7 µM: [17]
28.6 µM: [11]
29.2 µM: [12]

CN(C)c1ccc(/C=N/n2c(-c3ccccc3)nc3ccccc3c2=O)cc1
92.4 µM: [9]
> 100 µM: [1] | [3] | [16] | [4] | [5] | [6] | [17] | [7] | [8] | [10] | [11] | [12] | [19] | [13] | [14] | [15]

O=c1[nH]c2nccnc2c2c([N+](=O)[O-])cccc12
> 100 µM: [1] | [2] | [3] | [16] | [4] | [5] | [6] | [17] | [18] | [7] | [8] | [9] | [10] | [12] | [19] | [13] | [14] | [15]

COc1cc2c(cc1OC)C1=Cc3ccc(OC)c(OC)c3C(C#N)N1CC2 (stereo not given)
76.3 µM: [16]
43.8 µM: [5]
81.3 µM: [11]
38.6 µM: [7]
> 100 µM: [1] | [3] | [4] | [6] | [17] | [8] | [9] | [10] | [12] | [19] | [13] | [14] | [15]

N#Cc1ccc(/C=N/NC(=O)CSCC(=O)N/N=C/c2ccc(C#N)cc2)cc1
> 100 µM: [1] | [2] | [3] | [16] | [4] | [5] | [6] | [17] | [18] | [7] | [9] | [10] | [12] | [19] | [13] | [14] | [15]
81.7 µM: [11]

O=c1c(/C=C/c2c(O)ccc3ccccc23)nnc2sc(-c3cccc([N+](=O)[O-])c3)nn12
68.4 µM: [4]
28.4 µM: [19]
56.1 µM: [9]
28.1 µM: [13]
> 100 µM: [1] | [2] | [3] | [16] | [5] | [6] | [17] | [18]
82.6 µM: [10]
32.2 µM: [14]
51.6 µM: [15]
58 µM: [11]

CC(C)=CC(C)C(C(O)CCC1(c2ccoc2)OCCO1)S(=O)(=O)c1ccccc1 (stereo not given)
> 100 µM: [1] | [2] | [16] | [4] | [5] | [6] | [17] | [7] | [8] | [10] | [11] | [12] | [13] | [14] | [15]

N#CN=C1c2ccccc2C(=NC#N)c2cc(CO)ccc21
> 100 µM: [1] | [3] | [4] | [17] | [7] | [9] | [10] | [11] | [12] | [13] | [14] | [15]
74 µM: [6]
81.5 µM: [2]
31 µM: [16]
59 µM: [19]
80.7 µM: [18]

c1nncn1C12C3C4C5C3C1C5C42 (stereo not given)
> 100 µM: [1] | [3] | [16] | [5] | [6] | [17] | [18] | [7] | [8] | [9] | [10] | [11] | [12] | [19] | [13] | [14]

COC(=O)c1c(O)ccc2c1c1c(n2Cc2ccc(OC)cc2)C(=O)c2ccccc2C1=O
7.35 µM: [17]
32.4 µM: [4]
17.1 µM: [13]
3.3 µM: [5]
8.55 µM: [3]
20 µM: [18]
51.7 µM: [1]
58.1 µM: [9]
12.6 µM: [6]
19.7 µM: [14]
39 µM: [10]
35.2 µM: [15]
34.3 µM: [2]
0.296 µM: [8]
1.9 µM: [16]
33.3 µM: [12]

C=C(C)[C@@H]1CC[C@]2(CO)CC[C@]3(C)[C@H](CC[C@@H]4[C@@]5(C)CC[C@H](O)C(C)(C)[C@@H]5CC[C@]43C)[C@@H]12
27.8 µM: [10]
69.6 µM: [17]
25.9 µM: [2]
25.6 µM: [6]
48.6 µM: [3]
64.9 µM: [13]
> 100 µM: [1] | [4] | [18] | [8] | [11] | [12] | [19] | [14]
57.9 µM: [7]

Fc1ccc(C2NC(=S)NC3=C2CCOc2c3ccc3ccccc23)cc1 (stereo not given)
30.3 µM: [5]
37.1 µM: [7]
30.1 µM: [14]
> 100 µM: [1] | [2] | [16] | [4] | [6] | [17] | [18] | [8] | [9] | [10] | [12] | [19] | [13] | [15]
